System: microtubule network of MCF-7 cells
Assay: Immunofluorescence (confocal) of microtubule network
Format: cell-based, human
Details: MCF-7, 16 h; 10n 0.05, 0.1, 0.5 μM; CA-4 10 nM; paclitaxel 1 μM
Experimental: Subsequently, the effect of the representative compound 10n on the organisation of microtubule cytoskeleton of MCF-7 cells was also determined by confocal microscopy using an anti-tubulin antibody (Figure 8). […] The MCF-7 cell nuclei (stained blue) were also clearly observed (Figure 8A). […] The treatment of MCF-7 breast cancer cells with CA-4 tubulin-targeting agents has been reported to result in the formation of multiple micronuclei and mitotic catastrophes.
Confocal microscopy was used to study the effects on MCF-7 cytoskeleton following treatment with compound 10n following the protocols previously reported. For each experiment, all images were collected on the same day using identical parameters. MCF-7 cells were seeded (1 × 10^5 cells/mL) on eight chamber glass slides. Cells were either untreated or treated with vehicle (1% ethanol (v/v)), CA-4 (10 nM), Paclitaxel (1 μM) and β-lactam compound 10n at 50 nM, 100 nM and 500 nM concentrations for 16 h. The cells were then gently washed in PBS and then fixed for 30 min with 100% ice-cold MeOH. Cells were washed three times in PBS for 10 min and then permeabilised in 0.5% Triton X-100. The cells were subsequently washed in PBS containing 0.1% Tween (PBST), and then blocked in bovine serum albumin (5%) diluted in PBST. Cells were then incubated with a mouse monoclonal anti-α-tubulin−FITC antibody (clone DM1A) (1:200) for 2 h at 20 °C. Following washes in PBST, cells were incubated with Alexa Fluor 488 dye (1:500) for 1 h at 20 °C. Following further washes in PBST, the cells were mounted in Ultra Cruz Mounting Media, which contained 4,6-diamino-2-phenolindol dihydrochloride (DAPI). The images were photographed using Leica SP8 confocal microscopy with the Leica application suite X software program. Experiments were performed on three independent occasions.
Figure 8 Compound 10n depolymerises the microtubule network of MCF-7 breast cancer cells. Cells were treated with (A) vehicle control ([…]), (B) CA-4 (10 nM), (C) paclitaxel (1 μM) and compound 10n, (D) (50 nM), (E) (100 nM) and (F) (500 nM) for 16 h. […]

CC(=O)O[C@H]1C(=O)[C@@]2(C)[C@H]([C@H](OC(=O)c3ccccc3)[C@]3(O)C[C@H](OC(=O)[C@H](O)[C@@H](NC(=O)c4ccccc4)c4ccccc4)C(C)=C1C3(C)C)[C@]1(OC(C)=O)CO[C@@H]1C[C@@H]2O [paclitaxel]
effect on microtubule network: hyper-polymerisation of tubulin
